Earlier results as cited in patent US6241994A, “Solid TCMTB formulations” (Buckman Laboratories International, Inc., priority 1998, dated 2001).

Assays:
[1] = for pH above which the substance decomposes: decomposition at a pH above the value
[2] = unstable at temperatures greater than the value

Row | solubility in water (in water) | Compound | solubility in most of organic solvents (most of organic solvents) | stability in acidic systems ([1]; acidic systems, ambient temperature) | pH above which the substance decomposes [1] | temperature above which considered unstable [2]
1 |  | N#CSCSC#N [MTC, methylene bisthiocyanate] | soluble | stable | above 7.5 | greater than 100 °C
2 | about 0.033 g/l | N#CSCSc1nc2ccccc2s1 [TCMTB, 2-(thiocyanomethylthio)-benzothiazole] |  |  | above 8.0 | 
